Data reported in ChEMBL document CHEMBL4219086, “Development of benzoxazole deoxybenzoin oxime and acyloxylamine derivatives targeting innate immune sensors and xanthine oxidase for treatment of gout” (Bioorg Med Chem, 2018).
The source made the active and inactive calls. No cut-off for these calls is given here.

Tests used:
[1] = tested on: Rattus norvegicus; test: Inhibition of MSU-induced phosphorylated IkappaB protein level in synovial homogenate of acute gouty arthritis Sprague-Dawley rat model at 2.5 to 10 mg/kg, po qd pretreated via gavage for 5 days followed by MSU treatment at 1 hr post last dose measured up to 24 hrs by Western blot method; assay type: functional, organism-based
[2] = tested on: Rattus norvegicus; test: (§1) Antiarthritic activity in MSU-induced acute gouty arthritis Sprague-Dawley rat model assessed as reduction in ankle swelling by measuring perimeter of ankle at 5 mg/kg, po qd pretreated via gavage for 5 days followed by MSU treatment at 1 hr post last dose measured immediately (reference value: 2.64 +/- 0.81 cm); assay type: functional
[3] = tested on: Rattus norvegicus; test: Inhibition of MSU-induced TNFalpha level in synovial homogenate of acute gouty arthritis Sprague-Dawley rat model at 2.5 to 10 mg/kg, po qd pretreated via gavage for 5 days followed by MSU treatment at 1 hr post last dose measured up to 24 hrs by ELISA; assay type: functional, organism-based
[4] = tested on: Rattus norvegicus; test: as §1, with “after 4 hrs” for “immediately”, “3.18” for “2.64”, “0.64” for “0.81”; assay type: functional
[5] = tested on: Rattus norvegicus; test: as §1, with “at 10” for “at 5”, “measured after 4 hrs” for “measured immediately”, “value: 3.18” for “value: 2.64”, “+/- 0.64” for “+/- 0.81”; assay type: functional
[6] = tested on: Rattus norvegicus; test: Inhibition of MSU-induced p65 NFkappaB protein level in synovial homogenate of acute gouty arthritis Sprague-Dawley rat model at 2.5 to 10 mg/kg, po qd pretreated via gavage for 5 days followed by MSU treatment at 1 hr post last dose measured up to 24 hrs by Western blot method; assay type: functional, organism-based
[7] = tested on: Mus musculus; test: In vivo inhibition of XOD activity in liver of Kunming mouse model of potassium oxonate-induced hyperuricemia at 10 mg/kg, po treated 1 hr post potassium oxonate addition measured after 1 hr relative to control; assay type: functional
[8] = tested on: Rattus norvegicus; test: as §1, with “after 2 hrs” for “immediately”, “2.82” for “2.64”, “0.75” for “0.81”; assay type: functional
[9] = tested on: Rattus norvegicus; test: Inhibition of MSU-induced IL-1beta level in synovial homogenate of acute gouty arthritis Sprague-Dawley rat model at 2.5 to 10 mg/kg, po qd pretreated via gavage for 5 days followed by MSU treatment at 1 hr post last dose measured up to 24 hrs by ELISA; assay type: functional, organism-based
[10] = tested on: Mus musculus; test: Anti-hyperuricemic effect in Kunming mouse assessed as inhibition of potassium oxonate-induced serum uric acid level administered po 1 hr post potassium oxonate addition measured after 1 hr by phosphotungstic acid method; assay type: functional, organism-based
[11] = tested on: Rattus norvegicus; test: Inhibition of MSU-induced NLRP3 protein level in synovial homogenate of acute gouty arthritis Sprague-Dawley rat model at 2.5 to 10 mg/kg, po qd pretreated via gavage for 5 days followed by MSU treatment at 1 hr post last dose measured up to 24 hrs by Western blot method; assay type: functional, organism-based
[12] = tested on: Rattus norvegicus; test: as §1, with “at 2.5” for “at 5”, “measured after 24 hrs” for “measured immediately”, “value: 3.35” for “value: 2.64”, “+/- 0.5” for “+/- 0.81”; assay type: functional
[13] = tested on: Rattus norvegicus; test: Antiarthritic activity in po dosed MSU-induced acute gouty arthritis Sprague-Dawley rat model assessed as reduction in ankle swelling pretreated qd via gavage for 5 days followed by MSU treatment at 1 hr post last dose measured after 24 hrs; assay type: functional, organism-based
[14] = target: T1, Xanthine dehydrogenase/oxidase (Homo sapiens, UniProt P47989); test: Inhibition of Xanthine oxidase (unknown origin) using xanthine as substrate preincubated for 1 to 5 mins followed by substrate addition
[15] = target: Toll-like receptor 4 (Homo sapiens, UniProt O00206); test: Inhibition of human TLR4 signaling expressed in HEK-Blue cells co-expressing MD2/CD14 assessed as reduction in LPS-induced NF-kappaB activation-mediated SEAP production preincubated for 2 hrs followed by LPS stimulation for 20 hrs by colorimetric assay; assay type: cell-based
[16] = tested on: Rattus norvegicus; test: as §1, with “at 10” for “at 5”, “measured after 12 hrs” for “measured immediately”, “value: 3.51” for “value: 2.64”, “+/- 0.52” for “+/- 0.81”; assay type: functional
[17] = tested on: Rattus norvegicus; test: Inhibition of MSU-induced MyD88 protein level in synovial homogenate of acute gouty arthritis Sprague-Dawley rat model at 2.5 to 10 mg/kg, po qd pretreated via gavage for 5 days followed by MSU treatment at 1 hr post last dose measured up to 24 hrs by Western blot method; assay type: functional, organism-based
[18] = tested on: Rattus norvegicus; test: as §1, with “at 2.5” for “at 5”, “measured after 8 hrs” for “measured immediately”, “value: 3.27” for “value: 2.64”, “+/- 0.56” for “+/- 0.81”; assay type: functional
[19] = tested on: Rattus norvegicus; test: as §1, with “at 10” for “at 5”, “measured after 24 hrs” for “measured immediately”, “value: 3.35” for “value: 2.64”, “+/- 0.5” for “+/- 0.81”; assay type: functional
[20] = tested on: Mus musculus; test: Hypouricemic effect in Kunming mouse assessed as inhibition of hepatic XOD activity at 5 mg/kg, po measured after 1 hr relative to control; assay type: organism-based
[21] = tested on: Rattus norvegicus; test: as §1, with “at 2.5” for “at 5”; assay type: functional
[22] = tested on: Mus musculus; test: Hypouricemic effect in Kunming mouse assessed as inhibition of hepatic XOD activity at 10 mg/kg, po measured after 1 hr relative to control; assay type: organism-based
[23] = tested on: Mus musculus; test: In vivo inhibition of XOD activity in liver of Kunming mouse model of potassium oxonate-induced hyperuricemia at 2.5 mg/kg, po treated 1 hr post potassium oxonate addition measured after 1 hr relative to control; assay type: functional
[24] = target: T1, Xanthine dehydrogenase/oxidase; test: Competitive inhibition of Xanthine oxidase (unknown origin) using xanthine as substrate preincubated for 1 to 5 mins followed by substrate addition by Lineweaver-Burk plot analysis
[25] = tested on: Rattus norvegicus; test: as §1, with “at 10” for “at 5”, “measured after 2 hrs” for “measured immediately”, “value: 2.82” for “value: 2.64”, “+/- 0.75” for “+/- 0.81”; assay type: functional
[26] = tested on: Mus musculus; test: In vivo inhibition of XOD activity in liver of Kunming mouse model of potassium oxonate-induced hyperuricemia at 5 mg/kg, po treated 1 hr post potassium oxonate addition measured after 1 hr relative to control; assay type: functional
[27] = tested on: Rattus norvegicus; test: as §1, with “after 24 hrs” for “immediately”, “3.35” for “2.64”, “0.5” for “0.81”; assay type: functional
[28] = tested on: Rattus norvegicus; test: Inhibition of MSU-induced TNFalpha level in serum of acute gouty arthritis Sprague-Dawley rat model at 2.5 to 10 mg/kg, po qd pretreated via gavage for 5 days followed by MSU treatment at 1 hr post last dose measured up to 24 hrs by ELISA; assay type: functional, organism-based
[29] = tested on: Mus musculus; test: In vivo inhibition of XOD activity in liver of Kunming mouse model of potassium oxonate-induced hyperuricemia administered po 1 hr post potassium oxonate addition measured after 1 hr; assay type: functional, organism-based
[30] = tested on: Rattus norvegicus; test: Inhibition of MSU-induced IL-1beta level in serum of acute gouty arthritis Sprague-Dawley rat model at 2.5 to 10 mg/kg, po qd pretreated via gavage for 5 days followed by MSU treatment at 1 hr post last dose measured up to 24 hrs by ELISA; assay type: functional, organism-based

T1 sequence (P47989 whole entry): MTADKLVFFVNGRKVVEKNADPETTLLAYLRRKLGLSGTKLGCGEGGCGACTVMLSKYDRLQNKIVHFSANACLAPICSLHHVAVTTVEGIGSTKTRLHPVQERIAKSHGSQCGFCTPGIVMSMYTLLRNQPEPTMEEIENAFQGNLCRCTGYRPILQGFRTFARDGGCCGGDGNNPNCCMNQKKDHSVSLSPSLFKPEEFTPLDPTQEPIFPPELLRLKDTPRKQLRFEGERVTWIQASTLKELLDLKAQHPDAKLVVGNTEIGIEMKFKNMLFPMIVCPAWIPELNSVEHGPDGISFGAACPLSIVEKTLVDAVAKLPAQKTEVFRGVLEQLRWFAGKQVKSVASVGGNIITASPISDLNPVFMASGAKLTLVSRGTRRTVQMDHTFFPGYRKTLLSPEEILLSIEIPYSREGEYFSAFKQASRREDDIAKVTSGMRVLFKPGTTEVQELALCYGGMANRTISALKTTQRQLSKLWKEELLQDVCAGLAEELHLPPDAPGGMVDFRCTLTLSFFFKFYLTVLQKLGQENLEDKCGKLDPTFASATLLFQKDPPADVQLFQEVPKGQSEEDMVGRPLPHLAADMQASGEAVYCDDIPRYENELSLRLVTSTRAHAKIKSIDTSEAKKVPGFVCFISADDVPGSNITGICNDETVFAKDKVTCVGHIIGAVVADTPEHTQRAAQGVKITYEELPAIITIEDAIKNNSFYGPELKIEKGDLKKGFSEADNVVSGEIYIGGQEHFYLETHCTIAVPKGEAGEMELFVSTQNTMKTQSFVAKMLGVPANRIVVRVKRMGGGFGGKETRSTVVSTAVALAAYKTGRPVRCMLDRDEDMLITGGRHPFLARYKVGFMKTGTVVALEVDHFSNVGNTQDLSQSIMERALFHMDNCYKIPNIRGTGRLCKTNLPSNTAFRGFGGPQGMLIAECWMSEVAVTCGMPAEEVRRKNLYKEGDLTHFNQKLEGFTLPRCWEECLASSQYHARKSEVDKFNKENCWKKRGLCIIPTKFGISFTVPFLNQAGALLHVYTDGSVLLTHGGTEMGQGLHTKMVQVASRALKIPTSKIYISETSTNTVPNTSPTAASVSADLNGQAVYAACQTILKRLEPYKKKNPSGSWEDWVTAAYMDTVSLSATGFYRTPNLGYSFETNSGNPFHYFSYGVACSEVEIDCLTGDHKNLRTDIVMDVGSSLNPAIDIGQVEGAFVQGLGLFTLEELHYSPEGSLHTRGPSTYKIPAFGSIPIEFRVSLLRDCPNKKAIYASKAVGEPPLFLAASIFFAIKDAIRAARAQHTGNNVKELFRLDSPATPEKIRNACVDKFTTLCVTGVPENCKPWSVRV
Chain of Toll-like receptor 4 (O00206 whole entry): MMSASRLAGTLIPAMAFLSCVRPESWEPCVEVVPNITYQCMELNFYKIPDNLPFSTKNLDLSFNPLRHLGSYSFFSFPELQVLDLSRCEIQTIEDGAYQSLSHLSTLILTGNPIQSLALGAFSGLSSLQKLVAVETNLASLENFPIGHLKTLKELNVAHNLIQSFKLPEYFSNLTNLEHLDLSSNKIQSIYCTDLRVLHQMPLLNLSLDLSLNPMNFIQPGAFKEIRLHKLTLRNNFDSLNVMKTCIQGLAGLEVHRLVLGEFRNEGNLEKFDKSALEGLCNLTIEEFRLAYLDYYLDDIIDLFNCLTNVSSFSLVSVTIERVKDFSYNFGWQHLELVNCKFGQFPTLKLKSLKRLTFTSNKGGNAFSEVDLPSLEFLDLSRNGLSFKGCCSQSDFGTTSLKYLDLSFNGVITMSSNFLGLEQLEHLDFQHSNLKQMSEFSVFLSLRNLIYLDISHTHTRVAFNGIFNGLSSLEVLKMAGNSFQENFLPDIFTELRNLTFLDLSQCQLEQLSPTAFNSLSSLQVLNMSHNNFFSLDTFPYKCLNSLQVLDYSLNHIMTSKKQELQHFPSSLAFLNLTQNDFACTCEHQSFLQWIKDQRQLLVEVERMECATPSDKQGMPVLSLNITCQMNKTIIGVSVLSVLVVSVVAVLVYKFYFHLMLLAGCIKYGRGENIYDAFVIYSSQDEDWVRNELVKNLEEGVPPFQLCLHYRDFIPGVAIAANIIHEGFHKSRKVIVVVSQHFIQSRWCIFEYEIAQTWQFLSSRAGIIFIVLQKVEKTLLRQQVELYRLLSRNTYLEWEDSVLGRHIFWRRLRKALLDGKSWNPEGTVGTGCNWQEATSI

- IC50 [14]: 3700 nM
- IC50 [15]: 540 nM
- Ki [24]: 2890 nM
SMILES: COc1ccc(C/C(=N\O)c2nc3ccc(OC)cc3o2)cc1
- inhibition [1]: Active
- Activity [2]: 2.7 cm
- inhibition [3]: Active
- Activity [4]: 2.84 cm
- Activity [5]: 2.79 cm
- inhibition [6]: Active
- inhibition in vivo at 10 mg/kg [7]: 41.9%
- Activity [8]: 2.56 cm
- inhibition [9]: Active
- inhibition [10]: Dose-dependent effect
- inhibition [11]: Active
- Activity [12]: 2.97 cm
- Activity [13]: Dose-dependent effect
- Activity [16]: 2.7 cm
- inhibition [17]: Active
- Activity [18]: 2.96 cm
- Activity [19]: 2.73 cm
- inhibition at 5 mg/kg [20]: 6.8%
- Activity [21]: 2.65 cm
- inhibition at 10 mg/kg [22]: 10.2%
- inhibition in vivo at 2.5 mg/kg [23]: 19.2%
- Activity [25]: 2.69 cm
- inhibition in vivo at 5 mg/kg [26]: 35.8%
- Activity [27]: 2.8 cm
- inhibition [28]: Active
- inhibition [29]: Dose-dependent effect
- inhibition [30]: Active
